Test results: the NIST ThermoML archive (doi:10.1021/je0496140)
Numbers after ± are expanded uncertainties.

Columns and labels:
[1] = 101.33 kPa, Liquid
[2] = xn = mol fraction of the nth substance listed; details: 101.33 kPa, Liquid

CCCCCl [1-chlorobutane]
mass density ([1]; 288.15 K): 891.87 ± 0.37 kg/m3 | viscosity ([1]; 288.15 K): 0.477 ± 0.007 mPa·s | mass density ([1]; 298.15 K): 880.18 ± 0.39 kg/m3 | viscosity ([1]; 298.15 K): 0.429 ± 0.006 mPa·s | mass density ([1]; 303.15 K): 875.19 ± 0.39 kg/m3 | viscosity ([1]; 303.15 K): 0.409 ± 0.006 mPa·s | mass density ([1]; 308.15 K): 869.64 ± 0.4 kg/m3 | viscosity ([1]; 308.15 K): 0.39 ± 0.006 mPa·s | mass density ([1]; 313.15 K): 863.94 ± 0.4 kg/m3 | viscosity ([1]; 313.15 K): 0.372 ± 0.006 mPa·s | mass density ([1]; 318.15 K): 858.31 ± 0.41 kg/m3 | viscosity ([1]; 318.15 K): 0.354 ± 0.005 mPa·s

CCCCCl [1-chlorobutane] + CC(C)CO
mass density ([2]; 288.15 K, x2 = 0.0369): 888.52 ± 0.37 kg/m3 | mass density ([2]; 288.15 K, x2 = 0.0769): 885.16 ± 0.38 kg/m3 | viscosity ([2]; 288.15 K, x2 = 0.1003): 0.511 ± 0.007 mPa·s | mass density ([2]; 288.15 K, x2 = 0.1526): 878.94 ± 0.38 kg/m3 | viscosity ([2]; 288.15 K, x2 = 0.1993): 0.568 ± 0.008 mPa·s | mass density ([2]; 288.15 K, x2 = 0.2287): 872.74 ± 0.39 kg/m3 | mass density ([2]; 288.15 K, x2 = 0.2853): 868.15 ± 0.4 kg/m3 | viscosity ([2]; 288.15 K, x2 = 0.2979): 0.654 ± 0.009 mPa·s | mass density ([2]; 288.15 K, x2 = 0.3791): 860.52 ± 0.41 kg/m3 | viscosity ([2]; 288.15 K, x2 = 0.3954): 0.784 ± 0.01 mPa·s | mass density ([2]; 288.15 K, x2 = 0.4421): 855.33 ± 0.41 kg/m3 | viscosity ([2]; 288.15 K, x2 = 0.496): 0.948 ± 0.012 mPa·s | mass density ([2]; 288.15 K, x2 = 0.5564): 845.76 ± 0.42 kg/m3 | mass density ([2]; 288.15 K, x2 = 0.5739): 844.3 ± 0.43 kg/m3 | viscosity ([2]; 288.15 K, x2 = 0.5936): 1.198 ± 0.015 mPa·s | mass density ([2]; 288.15 K, x2 = 0.625): 839.91 ± 0.43 kg/m3 | mass density ([2]; 288.15 K, x2 = 0.6843): 834.73 ± 0.44 kg/m3 | viscosity ([2]; 288.15 K, x2 = 0.6894): 1.57 ± 0.019 mPa·s | mass density ([2]; 288.15 K, x2 = 0.7309): 830.64 ± 0.44 kg/m3 | mass density ([2]; 288.15 K, x2 = 0.7517): 828.8 ± 0.44 kg/m3 | mass density ([2]; 288.15 K, x2 = 0.7555): 828.45 ± 0.45 kg/m3 | mass density ([2]; 288.15 K, x2 = 0.7567): 828.35 ± 0.45 kg/m3 | viscosity ([2]; 288.15 K, x2 = 0.7923): 2.196 ± 0.026 mPa·s | mass density ([2]; 288.15 K, x2 = 0.849): 819.9 ± 0.46 kg/m3 | viscosity ([2]; 288.15 K, x2 = 0.8912): 3.098 ± 0.036 mPa·s | mass density ([2]; 288.15 K, x2 = 0.9196): 813.2 ± 0.46 kg/m3 | mass density ([2]; 288.15 K, x2 = 0.9806): 807.26 ± 0.47 kg/m3 | viscosity ([2]; 298.15 K, x2 = 0.1003): 0.454 ± 0.007 mPa·s | viscosity ([2]; 298.15 K, x2 = 0.1993): 0.499 ± 0.007 mPa·s | viscosity ([2]; 298.15 K, x2 = 0.2979): 0.567 ± 0.008 mPa·s | viscosity ([2]; 298.15 K, x2 = 0.3954): 0.663 ± 0.009 mPa·s | viscosity ([2]; 298.15 K, x2 = 0.496): 0.787 ± 0.01 mPa·s | viscosity ([2]; 298.15 K, x2 = 0.5936): 0.97 ± 0.012 mPa·s | viscosity ([2]; 298.15 K, x2 = 0.6894): 1.23 ± 0.015 mPa·s | viscosity ([2]; 298.15 K, x2 = 0.7923): 1.669 ± 0.02 mPa·s | viscosity ([2]; 298.15 K, x2 = 0.8912): 2.284 ± 0.027 mPa·s | viscosity ([2]; 308.15 K, x2 = 0.1003): 0.408 ± 0.006 mPa·s | mass density ([2]; 308.15 K, x2 = 0.1006): 861.12 ± 0.4 kg/m3 | mass density ([2]; 308.15 K, x2 = 0.1959): 853.68 ± 0.41 kg/m3 | viscosity ([2]; 308.15 K, x2 = 0.1993): 0.445 ± 0.006 mPa·s | mass density ([2]; 308.15 K, x2 = 0.277): 847.47 ± 0.42 kg/m3 | viscosity ([2]; 308.15 K, x2 = 0.2979): 0.497 ± 0.007 mPa·s | mass density ([2]; 308.15 K, x2 = 0.3894): 838.94 ± 0.43 kg/m3 | viscosity ([2]; 308.15 K, x2 = 0.3954): 0.574 ± 0.008 mPa·s | mass density ([2]; 308.15 K, x2 = 0.4895): 831.33 ± 0.44 kg/m3 | viscosity ([2]; 308.15 K, x2 = 0.496): 0.663 ± 0.009 mPa·s | mass density ([2]; 308.15 K, x2 = 0.5863): 823.9 ± 0.45 kg/m3 | viscosity ([2]; 308.15 K, x2 = 0.5936): 0.801 ± 0.01 mPa·s | viscosity ([2]; 308.15 K, x2 = 0.6894): 0.986 ± 0.012 mPa·s | mass density ([2]; 308.15 K, x2 = 0.6914): 815.7 ± 0.46 kg/m3 | viscosity ([2]; 308.15 K, x2 = 0.7923): 1.295 ± 0.016 mPa·s | mass density ([2]; 308.15 K, x2 = 0.7941): 807.44 ± 0.47 kg/m3 | viscosity ([2]; 308.15 K, x2 = 0.8912): 1.724 ± 0.021 mPa·s | mass density ([2]; 308.15 K, x2 = 0.8989): 798.78 ± 0.48 kg/m3 | mass density ([2]; 318.15 K, x2 = 0.0905): 850.62 ± 0.42 kg/m3 | viscosity ([2]; 318.15 K, x2 = 0.1003): 0.369 ± 0.006 mPa·s | mass density ([2]; 318.15 K, x2 = 0.1869): 843.28 ± 0.43 kg/m3 | viscosity ([2]; 318.15 K, x2 = 0.1993): 0.397 ± 0.006 mPa·s | mass density ([2]; 318.15 K, x2 = 0.2712): 837.05 ± 0.43 kg/m3 | viscosity ([2]; 318.15 K, x2 = 0.2979): 0.44 ± 0.006 mPa·s | mass density ([2]; 318.15 K, x2 = 0.3772): 829.29 ± 0.44 kg/m3 | viscosity ([2]; 318.15 K, x2 = 0.3954): 0.498 ± 0.007 mPa·s | mass density ([2]; 318.15 K, x2 = 0.4806): 821.73 ± 0.45 kg/m3 | viscosity ([2]; 318.15 K, x2 = 0.496): 0.567 ± 0.008 mPa·s | mass density ([2]; 318.15 K, x2 = 0.5812): 814.29 ± 0.46 kg/m3 | viscosity ([2]; 318.15 K, x2 = 0.5936): 0.682 ± 0.009 mPa·s | mass density ([2]; 318.15 K, x2 = 0.6819): 806.85 ± 0.47 kg/m3 | viscosity ([2]; 318.15 K, x2 = 0.6894): 0.808 ± 0.01 mPa·s | mass density ([2]; 318.15 K, x2 = 0.7816): 799.34 ± 0.48 kg/m3 | viscosity ([2]; 318.15 K, x2 = 0.7923): 1.025 ± 0.013 mPa·s | mass density ([2]; 318.15 K, x2 = 0.8896): 791.03 ± 0.49 kg/m3 | viscosity ([2]; 318.15 K, x2 = 0.8912): 1.33 ± 0.016 mPa·s
